Data reported in patent publication US11235022B2, “Methods of diagnosis, selection, and treatment of diseases and conditions caused by or associated with methanogens” (Cedars-Sinai Medical Center, priority 2013, dated 2022).

Tests used:
[1] = tested on: small bowel motility / small intestinal transit; settings: cited from earlier work
[2] = tested on: methane on breath testing; constipation symptoms; settings: retrospective study; 10 days; cited from earlier work
[3] = Example 4A: glucose tolerance test and cholesterol before and after antibiotic in single patients; format: in vivo, human
Experimental: After an administration of rifaximin at 550 mg, three times a day, the peak glucose was 161 mg/dL. Cholesterol for the same patient was 200 and then 171 after treatment. […] After an administration of neomycin at 500 mg, twice daily, the peak glucose was 121. Cholesterol was 202 before the treatment and was down to 178 after treatment.

[4] = tested on: methane producers with constipation predominant IBS; settings: placebo 5.0±5.1%; cited from earlier work

Compound	reduction of proximal small bowel motility (average) ([1]; 5 dogs, methane infused through mid-small bowel fistula)	slowing of small intestinal transit ([1]; in vivo animal study, infusion of methane into the small intestine)	reduction in constipation symptoms [2]	reduction in methane [2]	peak glucose on glucose tolerance test after treatment ([3]; Patient 2, neomycin 500 mg twice daily, 154 before antibiotics)	cholesterol after treatment ([3]; Patient 2, neomycin 500 mg twice daily, 202 before)	improvement in constipation [4]	cholesterol after treatment ([3]; Patient 1, rifaximin 550 mg three times a day, 200 before)	peak glucose on glucose tolerance test after treatment ([3]; Patient 1, rifaximin 550 mg three times a day, 260 before antibiotics)
C [methane]	59%	59%							
neomycin			63%	33%	121	178	44.0±12.3%		
CO[C@H]1/C=C/O[C@@]2(C)Oc3c(C)c(O)c4c(O)c(c5c(nc6cc(C)ccn65)c4c3C2=O)NC(=O)/C(C)=C\C=C\[C@H](C)[C@H](O)[C@@H](C)[C@@H](O)[C@@H](C)[C@H](OC(C)=O)[C@@H]1C [rifaximin]			56%	28%				171	161 mg/dL
